Measured values as given in patent US20230111656A1, “METHODS OF CONTROLLING OR PREVENTING INFESTATION OF SOYBEAN PLANTS BY THE PHYTOPATHOGENIC MICROORGANISM CORYNESPORA CASSIICOLA” (SYNGENTA CROP PROTECTION AG, priority 2020, published 2023).

System: Corynespora cassiicola
Test: Liquid culture growth inhibition of Corynespora cassiicola (PDB, 96-well microtiter plate, photometric)
Assay type: cell-based
Conditions: 24 C, 3-4 days, photometric at 620 nm, compared to untreated control
Experimental: Conidia of the fungus from cryogenic storage were directly mixed into nutrient broth (PDB potato dextrose broth). A DMSO solution of the test compounds was placed into a microtiter plate (96-well format) and the nutrient broth containing the fungal spores was added to it. The test plates were incubated at 24 C and the inhibition of growth (% control of Corynespora cassiicola) was determined photometrically after 3-4 days at 620 nm. The activity of a compound is derived by comparing the inhibition of growth in the treated test solution to the growth in the untreated check. The concentration of the compounds was 0.74, 0.25, and 0.082 ppm.

## CC1(C)N=C(c2cnc3ccccc3c2)c2ccccc2C1(F)F
0.082 ppm
  control of Corynespora cassiicola (inhibition of growth): at least 20%
0.25 ppm
  control of Corynespora cassiicola (inhibition of growth): at least 50%
0.74 ppm
  control of Corynespora cassiicola (inhibition of growth): at least 70%
